From patent publication US20260258035A1, “FIVE-MEMBERED AND SIX-MEMBERED NITROGEN-CONTAINING COMPOUND, AND INTERMEDIATE, PREPARATION METHOD AND USE THEREOF” (HANGZHOU SYNRX THERAPEUTICS BIOMEDICAL TECHNOLOGY CO., LTD., priority 2022, published 2026)
Where two headings read alike, the source gives them in different places.

Columns and labels:
PARG = PARG (Homo sapiens, UniProt Q86W56); experiment: Biochemical assay (PARG, TFMU-ADPr substrate)
[1] = system: Human breast squamous carcinoma cells HCC1806; experiment: Cell function assay (In-Cell Western, PAR/pADPr after MMS); assay type: cell-based; conditions: read-out: IC50 (nM) in cell function assay
Experimental: 2. Cell Function Assay (In-Cell Western)
• 1) Human breast squamous carcinoma cells HCC1806 (ATCC) were seeded to the 384-well plate (Corning, #3764) at 20,000 cells/well, incubated for 24 h in a CO2 (5%) incubator at 37° C. to allow for complete adherence of the cells; • 2) 120 nL compounds or DMSO were added to the 384-well plate by Echo 550 (LABCYTE, #550) (final concentrations of compounds: 30000 nM, 10000 nM, 3000 nM, 1000 nM, 300 nM, 100 nM, 30 nM, 10 nM, 3 nM, 1 nM, 0 nM), and then the cells were incubated for 1 h in a CO2 (5%) incubator at 37° C.; • 3) 40 nL MMS (methyl mesylate, Sigma, #129925)(final concentration: 0.5 mM) was added to the plate by Echo 550, and the cells were treated for 1 h in a CO2 (5%) incubator at 37° C.

HCC1806 = experiment: Cell viability assay (CellTiter-Glo); assay type: cell-based, Human; conditions: Homo sapiens, HCC1806, 168 h, HCC1806, 7 days, CellTiter-Glo; read-out: IC50 (nM) in cell viability assay
[2] = 4 nM PARG, 66.2 uM TFMU-ADPr, 3 min at room temperature
[3] = HCC1806, In-Cell Western, MMS treatment
[4] = HCC1806, compound 1 h then 0.5 mM MMS 1 h, PAR/pADPr antibody, In-Cell Western

Sequence of PARG (Q86W56 whole entry): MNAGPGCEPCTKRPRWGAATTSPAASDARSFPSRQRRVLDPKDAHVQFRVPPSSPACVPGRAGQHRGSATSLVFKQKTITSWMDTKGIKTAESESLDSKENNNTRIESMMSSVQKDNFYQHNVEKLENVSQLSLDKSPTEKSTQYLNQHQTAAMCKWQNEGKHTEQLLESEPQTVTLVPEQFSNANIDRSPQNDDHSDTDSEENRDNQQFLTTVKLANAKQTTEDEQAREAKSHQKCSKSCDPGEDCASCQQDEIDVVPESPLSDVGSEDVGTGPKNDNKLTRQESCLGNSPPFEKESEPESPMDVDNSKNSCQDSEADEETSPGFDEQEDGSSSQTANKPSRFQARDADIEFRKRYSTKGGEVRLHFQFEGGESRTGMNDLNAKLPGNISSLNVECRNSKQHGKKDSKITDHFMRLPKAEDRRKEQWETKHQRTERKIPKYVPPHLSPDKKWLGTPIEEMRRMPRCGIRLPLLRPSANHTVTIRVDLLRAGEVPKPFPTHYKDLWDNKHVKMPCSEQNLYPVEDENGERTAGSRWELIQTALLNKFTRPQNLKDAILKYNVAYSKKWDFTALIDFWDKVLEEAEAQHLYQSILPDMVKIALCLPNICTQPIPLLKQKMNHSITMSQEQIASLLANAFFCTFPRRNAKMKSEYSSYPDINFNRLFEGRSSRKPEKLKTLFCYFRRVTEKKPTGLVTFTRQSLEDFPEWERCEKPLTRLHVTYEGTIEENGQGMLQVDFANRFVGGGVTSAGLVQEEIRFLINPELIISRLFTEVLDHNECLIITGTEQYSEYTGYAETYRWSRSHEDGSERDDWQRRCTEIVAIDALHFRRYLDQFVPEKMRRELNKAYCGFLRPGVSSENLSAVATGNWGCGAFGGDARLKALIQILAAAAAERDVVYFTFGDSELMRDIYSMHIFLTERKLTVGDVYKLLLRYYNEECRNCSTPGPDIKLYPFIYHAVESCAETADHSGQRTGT

**Q.** `O=S(=O)(NC1(CF)CC1)c1cc(N2CCC3(CC2)COC3)c2nnc(-c3nnc(C(F)F)s3)n2c1` [Example 104, 3-(5-(difluoromethyl)-1,3,4-thiadiazol-2-yl)-N-(1-(fluoromethyl)cyclopropyl)-8-(2-oxa-7-azaspiro[3.5]nonan-7-yl)-[1,2,4]triazolo[4,3-a]pyridine-6-sulfonamide] was tested. Which IC50 (PARG; [2]) did it give?
**A.** < 100 nM

**Q.** And the IC50 (PARG; PARG, TFMU-ADPr substrate)?
**A.** 0.65 nM

**Q.** And the IC50 [1, 3]?
**A.** 9.76 nM

**Q.** And the IC50 [1, 4]?
**A.** < 100 nM

**Q.** With `CC(C)C(=O)N1CCN(c2cc(S(=O)(=O)NC3(C#N)CC3)cn3c(-c4nnc(C(F)F)s4)nc(Cl)c23)CC1` [Example 122, 1-chloro-N-(1-cyanocyclopropyl)-3-(5-(difluoromethyl)-1,3,4-thiadiazol-2-yl)-8-(4-isobutyrylpiperazin-1-yl)imidazo[1,5-a]pyridine-6-sulfonamide] as the compound, how does the IC50 (PARG; [2]) read?
**A.** < 100 nM

**Q.** What about the IC50 (PARG; PARG, TFMU-ADPr substrate) of the same compound?
**A.** 3.16 nM

**Q.** What about the IC50 [1, 3] of the same compound?
**A.** 4.58 nM

**Q.** And the IC50 [1, 4]?
**A.** < 100 nM

**Q.** Which IC50 (PARG; [2]) does the source give for `CC(C)(F)C(=O)N1CCN(c2cc(S(=O)(=O)NC3(C#N)CC3)cn3c(-c4nnc(C(F)F)s4)ncc23)CC1` [Example 64, N-(1-cyanocyclopropyl)-3-(5-(difluoromethyl)-1,3,4-thiadiazol-2-yl)-8-(4-(2-fluoro-2-methylpropanoyl)piperazin-1-yl)imidazo[1,5-a]pyridine-6-sulfonamide] here?
**A.** < 100 nM

**Q.** And the IC50 (PARG; PARG, TFMU-ADPr substrate)?
**A.** 3.44 nM

**Q.** And the IC50 [1, 3]?
**A.** 6.92 nM

**Q.** What about the IC50 [1, 4] of the same compound?
**A.** < 100 nM

**Q.** Which IC50 (PARG; [2]) does the source give for `C[C@@H]1CN(c2cc(S(=O)(=O)NC3(CF)CC3)cn3c(-c4nnc(C(F)F)s4)ncc23)CCN1C(=O)C1(C)CC1` [Example 63, (R)-3-(5-(difluoromethyl)-1,3,4-thiadiazol-2-yl)-N-(1-(fluoromethyl)cyclopropyl)-8-(3-methyl-4-(1-methylcyclopropane-1-carbonyl)piperazin-1-yl)imidazo[1,5-a]pyridine-6-sulfonamide] here?
**A.** < 100 nM

**Q.** And the IC50 (PARG; PARG, TFMU-ADPr substrate)?
**A.** 2.12 nM

**Q.** And the IC50 [1, 3]?
**A.** 1.36 nM

**Q.** What about the IC50 [1, 4] of the same compound?
**A.** < 100 nM

**Q.** `C[C@@H]1CN(c2cc(S(=O)(=O)NC3(C#N)CC3)cn3c(-c4nnc(C(F)F)s4)ncc23)CCN1C(=O)C1(C)CC1` [Example 62, (R)-N-(1-cyanocyclopropyl)-3-(5-(difluoromethyl)-1,3,4-thiadiazol-2-yl)-8-(3-methyl-4-(1-methylcyclopropane-1-carbonyl)piperazin-1-yl)imidazo[1,5-a]pyridine-6-sulfonamide] was tested. Which IC50 (PARG; [2]) did it give?
**A.** < 100 nM

**Q.** What about the IC50 (PARG; PARG, TFMU-ADPr substrate) of the same compound?
**A.** 3.75 nM

**Q.** What about the IC50 [1, 3] of the same compound?
**A.** 3.52 nM

**Q.** What about the IC50 [1, 4] of the same compound?
**A.** < 100 nM

**Q.** What does the source list for `C[C@@H]1CN(c2cc(S(=O)(=O)NC3(C#N)CC3)cn3c(-c4nnc(C(F)F)s4)ncc23)CCN1C(=O)C1(F)CC1` [Example 77, (R)-N-(1-cyanocyclopropyl)-3-(5-(difluoromethyl)-1,3,4-thiadiazol-2-yl)-8-(4-(1-fluorocyclopropane-1-carbonyl)-3-methylpiperazin-1-yl)imidazo[1,5-a]pyridine-6-sulfonamide]?
**A.** IC50 (PARG; [2]): < 100 nM; IC50 (PARG; PARG, TFMU-ADPr substrate): 24 nM; IC50 [1, 3]: 14.8 nM; IC50 [1, 4]: < 100 nM

**Q.** For `CC(C)C(=O)N1CCN(c2cc(S(=O)(=O)NC3(C)COC3)cn3c(-c4nnc(C(F)F)s4)nnc23)CC1` [Example 103, 3-(5-(difluoromethyl)-1,3,4-thiadiazol-2-yl)-8-(4-isobutyrylpiperazin-1-yl)-N-(3-methyloxetan-3-yl)-[1,2,4]triazolo[4,3-a]pyridine-6-sulfonamide], which IC50 (PARG; [2]) is on record?
**A.** < 100 nM

**Q.** And the IC50 (PARG; PARG, TFMU-ADPr substrate)?
**A.** 1.5 nM

**Q.** And the IC50 [1, 3]?
**A.** 33.6 nM

**Q.** And the IC50 [1, 4]?
**A.** < 100 nM

**Q.** Which results are given for `O=S(=O)(NC1(CF)CC1)c1cc(N2CCC(O)(C(F)(F)F)CC2)c2nnc(-c3nnc(C(F)F)s3)n2c1` [Example 115, 3-(5-(difluoromethyl)-1,3,4-thiadiazol-2-yl)-N-(1-(fluoromethyl)cyclopropyl)-8-(4-hydroxy-4-(trifluoromethyl)piperidin-1-yl)-[1,2,4]triazolo[4,3-a]pyridine-6-sulfonamide]?
**A.** IC50 (PARG; [2]): < 100 nM; IC50 (PARG; PARG, TFMU-ADPr substrate): 1.88 nM; IC50 [1, 3]: 8.51 nM; IC50 [1, 4]: < 100 nM

**Q.** How did the IC50 (PARG; [2]) turn out when `N#CC1(NS(=O)(=O)c2ccc3c(C4CCC5(CNC5)C4)nc(-c4nnc(C(F)F)s4)n3c2)CC1` (stereo not shown) [Example 26, N-(1-cyanocyclopropyl)-3-(5-(difluoromethyl)-1,3,4-thiadiazol-2-yl)-1-(2-azaspiro[3.4]octan-6-yl)imidazo[1,5-a]pyridine-6-sulfonamide] was run?
**A.** < 100 nM

**Q.** And the IC50 (PARG; PARG, TFMU-ADPr substrate)?
**A.** 5.37 nM

**Q.** And the IC50 [1, 3]?
**A.** 4690 nM

**Q.** What about the IC50 [1, 4] of the same compound?
**A.** > 1000 nM

**Q.** For `CC(C)C(=O)N1CCN(c2cc(S(=O)(=O)NC3(CF)CC3)cn3c(-c4nnc(C(F)F)s4)ncc23)CC1` [Example 31, 3-(5-(difluoromethyl)-1,3,4-thiadiazol-2-yl)-N-(1-(fluoromethyl)cyclopropyl)-8-(4-isobutyrylpiperazin-1-yl)imidazo[1,5-a]pyridine-6-sulfonamide], which IC50 (PARG; [2]) is on record?
**A.** < 100 nM

**Q.** And the IC50 (PARG; PARG, TFMU-ADPr substrate)?
**A.** 0.84 nM

**Q.** What about the IC50 [1, 3] of the same compound?
**A.** 4.7 nM

**Q.** And the IC50 [1, 4]?
**A.** < 100 nM

**Q.** What does the source list for `CC(C)C(=O)N1CCN(c2cc(S(=O)(=O)NC3(C#N)CC3)cn3c(-c4nnc(C(F)F)s4)ncc23)C[C@@H]1C` [Example 85, (S)-N-(1-cyanocyclopropyl)-3-(5-(difluoromethyl)-1,3,4-thiadiazol-2-yl)-8-(4-isobutyryl-3-methylpiperazin-1-yl)imidazo[1,5-a]pyridine-6-sulfonamide]?
**A.** IC50 (PARG; [2]): < 100 nM; IC50 (PARG; PARG, TFMU-ADPr substrate): 15.2 nM; IC50 [1, 3]: 13.7 nM; IC50 [1, 4]: < 100 nM

**Q.** With `[2H]c1nc(-c2nnc(C(F)F)s2)n2cc(S(=O)(=O)NC3(CF)COC3)c(F)c(N3CCN(C(=O)C(C)C)CC3)c12` [Example 154, 3-(5-(difluoromethyl)-1,3,4-thiadiazol-2-yl)-7-fluoro-N-(3-(fluoromethyl)oxetan-3-yl)-8-(4-isobutyrylpiperazin-1-yl)imidazo[1,5-a]pyridine-6-sulfonamide-1-d] as the compound, how does the IC50 (PARG; [2]) read?
**A.** < 100 nM

**Q.** What about the IC50 (PARG; PARG, TFMU-ADPr substrate) of the same compound?
**A.** 8.22 nM

**Q.** And the IC50 [1, 3]?
**A.** 9.94 nM

**Q.** And the IC50 [1, 4]?
**A.** < 100 nM

**Q.** Which IC50 (PARG; [2]) does the source give for `CC(C)C(=O)N1CCN(c2cc(S(=O)(=O)NC3(C)CC3)cn3c(-c4nnc(C(F)F)s4)nc(C#N)c23)CC1` [Example 163, 1-cyano-3-(5-(difluoromethyl)-1,3,4-thiadiazol-2-yl)-8-(4-isobutyrylpiperazin-1-yl)-N-(1-methylcyclopropyl)imidazo[1,5-a]pyridine-6-sulfonamide] here?
**A.** < 100 nM

**Q.** And the IC50 (PARG; PARG, TFMU-ADPr substrate)?
**A.** 1.58 nM

**Q.** What about the IC50 [1, 3] of the same compound?
**A.** 5.14 nM

**Q.** And the IC50 [1, 4]?
**A.** < 100 nM

**Q.** How did the IC50 (PARG; PARG, TFMU-ADPr substrate) turn out when `N#CC1(NS(=O)(=O)c2cc(N3CCN(C(=O)[C@H]4CCCN4)CC3)c3cnc(-c4nnc(C(F)(F)F)s4)n3c2)CC1` [Example 265, (R)-N-(1-cyanocyclopropyl)-8-(4-prolylpiperazin-1-yl)-3-(5-(trifluoromethyl)-1,3,4-thiadiazol-2-yl)imidazo[1,5-a]pyridine-6-sulfonamide] was run?
**A.** 158 nM

**Q.** And the IC50 (HCC1806)?
**A.** 8000 nM

**Q.** How did the IC50 (PARG; PARG, TFMU-ADPr substrate) turn out when `CN1CC2CN(c3cc(S(=O)(=O)NC4(C)COC4)cn4c(-c5nnc(C(F)(F)F)s5)ncc34)CCN2C(=O)C12CC2` (stereo not shown) [Example 393, 8-(2′-methyl-4′-oxohexahydro-4′H,8′H-spiro[cyclopropane-1,3′-pyrazino[1,2-a]pyrazin]-8′-yl)-N-(3-methyloxetan-3-yl)-3-(5-(trifluoromethyl)-1,3,4-thiadiazol-2-yl)imidazo[1,5-a]pyridine-6-sulfonamide] was run?
**A.** 5.75 nM

**Q.** What about the IC50 (HCC1806) of the same compound?
**A.** 222 nM

**Q.** `N#CC1(NS(=O)(=O)c2cc(N3CCN(C(=O)C(F)F)CC3)c3cnc(-c4nnc(C(F)(F)F)s4)n3c2)CC1` [Example 241, N-(1-cyanocyclopropyl)-8-(4-(2,2-difluoroacetyl)piperazin-1-yl)-3-(5-(trifluoromethyl)-1,3,4-thiadiazol-2-yl)imidazo[1,5-a]pyridine-6-sulfonamide] was tested. Which IC50 (PARG; PARG, TFMU-ADPr substrate) did it give?
**A.** 24 nM

**Q.** And the IC50 (HCC1806)?
**A.** 4180 nM

**Q.** Which IC50 (PARG; PARG, TFMU-ADPr substrate) does the source give for `CC(CO)C(=O)N1CCN(c2cc(S(=O)(=O)NC3(C#N)CC3)cn3c(-c4nnc(C(F)(F)F)s4)ncc23)CC1` (stereo not shown) [Example 259, N-(1-cyanocyclopropyl)-8-(4-(3-hydroxy-2-methylpropanoyl)piperazin-1-yl)-3-(5-(trifluoromethyl)-1,3,4-thiadiazol-2-yl)imidazo[1,5-a]pyridine-6-sulfonamide] here?
**A.** 45.7 nM

**Q.** What about the IC50 (HCC1806) of the same compound?
**A.** 1500 nM

**Q.** For `[2H]C([2H])([2H])OC1(C(=O)N2CCN(c3cc(S(=O)(=O)NC4(C)COC4)cn4c(-c5nnc(C(F)(F)F)s5)ncc34)CC2)CC1` [Example 183, 8-(4-(1-(methoxy-d3)cyclopropane-1-carbonyl)piperazin-1-yl)-N-(3-methyloxetan-3-yl)-3-(5-(trifluoromethyl)-1,3,4-thiadiazol-2-yl)imidazo[1,5-a]pyridine-6-sulfonamide], which IC50 (PARG; PARG, TFMU-ADPr substrate) is on record?
**A.** 0.91 nM

**Q.** And the IC50 (HCC1806)?
**A.** 26.8 nM

**Q.** How did the IC50 (PARG; PARG, TFMU-ADPr substrate) turn out when `CC1(NS(=O)(=O)c2cc(C3=CCN(S(C)(=O)=O)CC3)c3cnc(-c4nnc(C(F)(F)F)s4)n3c2)CC1` [Example 377, N-(1-methylcyclopropyl)-8-(1-(methylsulfonyl)-1,2,3,6-tetrahydropyridin-4-yl)-3-(5-(trifluoromethyl)-1,3,4-thiadiazol-2-yl)imidazo[1,5-a]pyridine-6-sulfonamide] was run?
**A.** 1.41 nM

**Q.** What about the IC50 (HCC1806) of the same compound?
**A.** 60 nM
